Results as given in ChEMBL document CHEMBL1122324, “New antihypertensive cannabinoids” (1983).

Legend:
Conditions in all cases: route oral
Rattus norvegicus [1] = assay: percentage decrease in heart rate after 24 hr at a dose of 1 mg/kg administered perorally in rats.; assay type: functional
Rattus norvegicus [2] = assay: percentage decrease in heart rate after 24 hr at a dose of 3 mg/kg administered perorally in rats.; assay type: functional
Rattus norvegicus [3] = assay: percentage decrease in heart rate after 24 hr at a dose of 30 mg/kg administered perorally in rats.; assay type: functional
Rattus norvegicus [4] = assay: percentage decrease in heart rate after 4 hr at a dose of 10 mg/kg administered perorally in rats.; assay type: functional
Rattus norvegicus [5] = assay: percentage decrease in heart rate after 4 hr at a dose of 1 mg/kg administered perorally in rats.; assay type: functional
Rattus norvegicus [6] = assay: percentage decrease in heart rate after 4 hr at a dose of 3 mg/kg administered perorally in rats.; assay type: functional
Rattus norvegicus [7] = assay: percentage decrease in heart rate after 4 hr at a dose of 30 mg/kg administered perorally in rats.; assay type: functional
Rattus norvegicus [8] = assay: percentage decrease in heart rate after 6 hr at a dose of 10 mg/kg administered perorally in rats.; assay type: functional
Rattus norvegicus [9] = assay: percentage decrease in heart rate after 6 hr at a dose of 1 mg/kg administered perorally in rats.; assay type: functional
Rattus norvegicus [10] = assay: percentage decrease in heart rate after 6 hr at a dose of 3 mg/kg administered perorally in rats.; assay type: functional
Rattus norvegicus [11] = assay: percentage decrease in heart rate after 6 hr at a dose of 30 mg/kg administered perorally in rats.; assay type: functional
Rattus norvegicus [12] = assay: percentage decrease in heart rate after 1 hr at a dose of 10 mg/kg administered perorally in rats.; assay type: functional
Rattus norvegicus [13] = assay: percentage decrease in heart rate after 1 hr at a dose of 3 mg/kg administered perorally in rats.; assay type: functional
Rattus norvegicus [14] = assay: percentage decrease in heart rate after 24 hr at a dose of 10 mg/kg administered perorally in rats.; assay type: functional
Rattus norvegicus [15] = assay: percentage decrease in heart rate after 1 hr at a dose of 1 mg/kg administered perorally in rats.; assay type: functional
Rattus norvegicus [16] = assay: Cumulative effect on spontaneous motor activity in rats at 10 mg/kg given perorally; assay type: functional
Rattus norvegicus [17] = assay: Cumulative effect on spontaneous motor activity in rats at 100 mg/kg given perorally; assay type: functional
Rattus norvegicus [18] = assay: Cumulative effect on spontaneous motor activity in rats at 30 mg/kg given perorally; assay type: functional
Rattus norvegicus [19] = assay: Cumulative effect on spontaneous motor activity in rats at 300 mg/kg given perorally; values less than 25 % are inactive; assay type: functional
Rattus norvegicus [20] = assay: Effect on spontaneous motor activity in rats after 1 hr at 10 mg/kg given perorally; assay type: functional
Rattus norvegicus [21] = assay: Effect on spontaneous motor activity in rats after 1 hr at 100 mg/kg given perorally; assay type: functional
Rattus norvegicus [22] = assay: Effect on spontaneous motor activity in rats after 1 hr at 30 mg/kg given perorally; assay type: functional
Rattus norvegicus [23] = assay: Effect on spontaneous motor activity in rats after 1 hr at 300 mg/kg given perorally; values less than 25 % are inactive; assay type: functional
Rattus norvegicus [24] = assay: Effect on spontaneous motor activity in rats after 2 hr at 10 mg/kg given perorally; assay type: functional
Rattus norvegicus [25] = assay: Effect on spontaneous motor activity in rats after 2 hr at 100 mg/kg given perorally; assay type: functional
Rattus norvegicus [26] = assay: Effect on spontaneous motor activity in rats after 2 hr at 30 mg/kg given perorally; values less than 25 % are inactive; assay type: functional
Rattus norvegicus [27] = assay: Effect on spontaneous motor activity in rats after 2 hr at 300 mg/kg given perorally; values less than 25 % are inactive; assay type: functional
Rattus norvegicus [28] = assay: Percentage decrease in systolic blood pressure after 6 hr at 3 mg/kg administered perorally in rats; assay type: functional, Artery
Rattus norvegicus [29] = assay: Percentage decrease in systolic blood pressure (heart rate) after 4 hr at 10 mg/kg administered perorally in rats; assay type: functional, Artery
Rattus norvegicus [30] = assay: Percentage decrease in systolic blood pressure (heart rate) after 6 hr at 10 mg/kg administered perorally in rats; assay type: functional, Artery
Rattus norvegicus [31] = assay: Percentage decrease in systolic blood pressure (heart rate) after 6 hr at 30 mg/kg administered perorally in rats; assay type: functional, Artery
Rattus norvegicus [32] = assay: Percentage decrease in systolic blood pressure after 1 hr at 1 mg/kg administered perorally in rats; assay type: functional, Artery
Rattus norvegicus [33] = assay: Percentage decrease in systolic blood pressure after 1 hr at 3 mg/kg administered perorally in rats; assay type: functional, Artery
Rattus norvegicus [34] = assay: Percentage decrease in systolic blood pressure after 24 hr at 1 mg/kg administered perorally in rats; assay type: functional, Artery
Rattus norvegicus [35] = assay: Percentage decrease in systolic blood pressure after 24 hr at 10 mg/kg administered perorally in rats; assay type: functional, Artery
Rattus norvegicus [36] = assay: Percentage decrease in systolic blood pressure after 24 hr at 3 mg/kg administered perorally in rats; assay type: functional, Artery
Rattus norvegicus [37] = assay: Percentage decrease in systolic blood pressure after 4 hr at 1 mg/kg administered perorally in rats; assay type: functional, Artery
Rattus norvegicus [38] = assay: Percentage decrease in systolic blood pressure (heart rate) after 1 hr at 10 mg/kg administered perorally in rats; assay type: functional, Artery
Rattus norvegicus [39] = assay: Percentage decrease in systolic blood pressure after 4 hr at 30 mg/kg administered perorally in rats; assay type: functional, Artery
Rattus norvegicus [40] = assay: Percentage decrease in systolic blood pressure after 6 hr at 1 mg/kg administered perorally in rats; assay type: functional, Artery
Rattus norvegicus [41] = assay: Percentage decrease in systolic blood pressure (heart rate) after 24 hr at 30 mg/kg administered perorally in rats; assay type: functional, Artery
Rattus norvegicus [42] = assay: Percentage decrease in systolic blood pressure after 4 hr at 3 mg/kg administered perorally in rats; assay type: functional, Artery
Rattus norvegicus [43] = assay: percentage decrease in heart rate after 24 hr at a dose of 30 mg/kg administered perorally in rats; assay type: functional
Rattus norvegicus [44] = assay: percentage decrease in heart rate after 4 hr at a dose of 100 mg/kg administered perorally in rats; assay type: functional
Rattus norvegicus [45] = assay: percentage decrease in heart rate after 4 hr at a dose of 300 mg/kg administered perorally in rats; assay type: functional
Rattus norvegicus [46] = assay: percentage decrease in heart rate after 6 hr at a dose of 30 mg/kg administered perorally in rats; assay type: functional
Rattus norvegicus [47] = assay: percentage decrease in heart rate after 1 hr at a dose of 30 mg/kg administered perorally in rats; assay type: functional
Rattus norvegicus [48] = assay: Percentage decrease in systolic blood pressure after 6 hr at 30 mg/kg administered perorally in rats; assay type: functional, Artery
Rattus norvegicus [49] = assay: Percentage decrease in systolic blood pressure after 1 hr at 30 mg/kg administered perorally in rats; assay type: functional, Artery
Rattus norvegicus [50] = assay: Percentage decrease in systolic blood pressure after 24 hr at 30 mg/kg administered perorally in rats; assay type: functional, Artery
Rattus norvegicus [51] = assay: Percentage decrease in systolic blood pressure after 4 hr at 300 mg/kg administered perorally in rats; assay type: functional, Artery
Rattus norvegicus [52] = assay: Percentage decrease in systolic blood pressure after 4 hr at 100 mg/kg administered perorally in rats; assay type: functional, Artery
Rattus norvegicus [53] = assay: percentage decrease in heart rate after 4 hr at a dose of 30 mg/kg administered perorally in rats; assay type: functional
Rattus norvegicus [54] = assay: Percentage decrease in systolic blood pressure after 4 hr at 10 mg/kg administered perorally in rats; assay type: functional, Artery
Rattus norvegicus [55] = assay: percentage decrease in heart rate after 1 hr at a dose of 30 mg/kg administered perorally in rats.; assay type: functional
Rattus norvegicus [56] = assay: Percentage decrease in systolic blood pressure (heart rate) after 4 hr at 30 mg/kg administered perorally in rats; assay type: functional, Artery

CCCCCC(C)C(C)c1cc(O)c2c(c1)OC(C)(C)C1=C2CN(C(=O)CO)CC1 (stereo not drawn)
Heart rate (Rattus norvegicus [1]): -18%
Heart rate (Rattus norvegicus [2]): 6%
Heart rate (Rattus norvegicus [3]): -1%
Heart rate (Rattus norvegicus [4]): 25%
Heart rate (Rattus norvegicus [5]): -18%
Heart rate (Rattus norvegicus [6]): -1%
Heart rate (Rattus norvegicus [7]): 25%
Heart rate (Rattus norvegicus [8]): 7%
Heart rate (Rattus norvegicus [9]): -22%
Heart rate (Rattus norvegicus [10]): -12%
Heart rate (Rattus norvegicus [11]): 6%
Heart rate (Rattus norvegicus [12]): 12%
Heart rate (Rattus norvegicus [13]): -3%
Heart rate (Rattus norvegicus [14]): 11%
Heart rate (Rattus norvegicus [15]): -18%
Activity (Rattus norvegicus [16]): 50%
Activity (Rattus norvegicus [17]): 30%
Activity (Rattus norvegicus [18]): 60%
Activity (Rattus norvegicus [19]): -45%
Activity (Rattus norvegicus [20]): 38%
Activity (Rattus norvegicus [21]): 29%
Activity (Rattus norvegicus [22]): 67%
Activity (Rattus norvegicus [23]): -46%
Activity (Rattus norvegicus [24]): 116%
Activity (Rattus norvegicus [25]): 32%
Activity (Rattus norvegicus [26]): 23%
Activity (Rattus norvegicus [27]): -42%
Decrease in Systolic blood pressure (Rattus norvegicus [28]): 3%
Decrease in Systolic blood pressure (Rattus norvegicus [29]): 34%
Decrease in Systolic blood pressure (Rattus norvegicus [30]): 19%
Decrease in Systolic blood pressure (Rattus norvegicus [31]): 24%
Decrease in Systolic blood pressure (Rattus norvegicus [32]): 0%
Decrease in Systolic blood pressure (Rattus norvegicus [33]): 9%
Decrease in Systolic blood pressure (Rattus norvegicus [34]): -5%
Decrease in Systolic blood pressure (Rattus norvegicus [35]): 4%
Decrease in Systolic blood pressure (Rattus norvegicus [36]): 3%
Decrease in Systolic blood pressure (Rattus norvegicus [37]): 0%
Decrease in Systolic blood pressure (Rattus norvegicus [38]): 20%
Decrease in Systolic blood pressure (Rattus norvegicus [39]): 26%
Decrease in Systolic blood pressure (Rattus norvegicus [40]): -5%
Decrease in Systolic blood pressure (Rattus norvegicus [41]): 16%
Decrease in Systolic blood pressure (Rattus norvegicus [42]): 15%

CCCCCC(C)C(C)c1cc(O)c2c(c1)OC(C)(C)C1CCN(C(=O)CN3CCOCC3)C=C21 (stereo not drawn)
Heart rate (Rattus norvegicus [43]): 14%
Heart rate (Rattus norvegicus [44]): 5%
Heart rate (Rattus norvegicus [45]): 9%
Heart rate (Rattus norvegicus [46]): 0%
Heart rate (Rattus norvegicus [47]): -16%
Decrease in Systolic blood pressure (Rattus norvegicus [48]): -1%
Decrease in Systolic blood pressure (Rattus norvegicus [49]): -8%
Decrease in Systolic blood pressure (Rattus norvegicus [50]): -6%
Decrease in Systolic blood pressure (Rattus norvegicus [39]): -5%
Decrease in Systolic blood pressure (Rattus norvegicus [51]): 26%
Decrease in Systolic blood pressure (Rattus norvegicus [52]): 23%
Heart rate (Rattus norvegicus [53]): 6%

CCCCCC(C)C(C)c1cc(O)c2c(c1)OC(C)(C)C1=C2CN(C(=O)CCCO)CC1 (stereo not drawn)
Heart rate (Rattus norvegicus [44]): 19%
Decrease in Systolic blood pressure (Rattus norvegicus [52]): 0%

C#CCN1CCC2=C(C1)c1c(O)cc(C(C)C(C)CCCCC)cc1OC2(C)C (stereo not drawn)
Decrease in Systolic blood pressure (Rattus norvegicus [35]): 27%
Decrease in Systolic blood pressure (Rattus norvegicus [36]): 4%
Decrease in Systolic blood pressure (Rattus norvegicus [54]): 23%
Decrease in Systolic blood pressure (Rattus norvegicus [42]): 7%

CCCCCC(C)C(C)c1cc(O)c2c(c1)OC(C)(C)C1CCN(C(=O)CO)C=C21 (stereo not drawn)
Heart rate (Rattus norvegicus [3]): -1%
Heart rate (Rattus norvegicus [44]): 19%
Heart rate (Rattus norvegicus [7]): -1%
Heart rate (Rattus norvegicus [11]): 1%
Heart rate (Rattus norvegicus [55]): 6%
Decrease in Systolic blood pressure (Rattus norvegicus [48]): 1%
Decrease in Systolic blood pressure (Rattus norvegicus [49]): 2%
Decrease in Systolic blood pressure (Rattus norvegicus [50]): -1%
Decrease in Systolic blood pressure (Rattus norvegicus [39]): -1%
Decrease in Systolic blood pressure (Rattus norvegicus [52]): 49%

CCCCCC(C)C(C)c1cc(OC(=O)COC(C)=O)c2c(c1)OC(C)(C)C1=C2CN(C(=O)COC(C)=O)CC1 (stereo not drawn)
Decrease in Systolic blood pressure (Rattus norvegicus [56]): 10%

CCCCCC(C)C(C)c1cc(O)c2c(c1)OC(C)(C)C1CCN(C(=O)CN3CCCCC3)C=C21 (stereo not drawn)
Heart rate (Rattus norvegicus [44]): -8%
Decrease in Systolic blood pressure (Rattus norvegicus [52]): 10%
